The text below walks through data of publication PMC6254361, “The properties of Msh2–Msh6 ATP binding mutants suggest a signal amplification mechanism in DNA mismatch repair” (The Journal of Biological Chemistry, 2018).

The experiment deals with T1, Msh2–Msh6 (Saccharomyces cerevisiae, UniProt P25847+Q03834, P25847:K694R).
T1 sequence (P25847 1-964 K694R): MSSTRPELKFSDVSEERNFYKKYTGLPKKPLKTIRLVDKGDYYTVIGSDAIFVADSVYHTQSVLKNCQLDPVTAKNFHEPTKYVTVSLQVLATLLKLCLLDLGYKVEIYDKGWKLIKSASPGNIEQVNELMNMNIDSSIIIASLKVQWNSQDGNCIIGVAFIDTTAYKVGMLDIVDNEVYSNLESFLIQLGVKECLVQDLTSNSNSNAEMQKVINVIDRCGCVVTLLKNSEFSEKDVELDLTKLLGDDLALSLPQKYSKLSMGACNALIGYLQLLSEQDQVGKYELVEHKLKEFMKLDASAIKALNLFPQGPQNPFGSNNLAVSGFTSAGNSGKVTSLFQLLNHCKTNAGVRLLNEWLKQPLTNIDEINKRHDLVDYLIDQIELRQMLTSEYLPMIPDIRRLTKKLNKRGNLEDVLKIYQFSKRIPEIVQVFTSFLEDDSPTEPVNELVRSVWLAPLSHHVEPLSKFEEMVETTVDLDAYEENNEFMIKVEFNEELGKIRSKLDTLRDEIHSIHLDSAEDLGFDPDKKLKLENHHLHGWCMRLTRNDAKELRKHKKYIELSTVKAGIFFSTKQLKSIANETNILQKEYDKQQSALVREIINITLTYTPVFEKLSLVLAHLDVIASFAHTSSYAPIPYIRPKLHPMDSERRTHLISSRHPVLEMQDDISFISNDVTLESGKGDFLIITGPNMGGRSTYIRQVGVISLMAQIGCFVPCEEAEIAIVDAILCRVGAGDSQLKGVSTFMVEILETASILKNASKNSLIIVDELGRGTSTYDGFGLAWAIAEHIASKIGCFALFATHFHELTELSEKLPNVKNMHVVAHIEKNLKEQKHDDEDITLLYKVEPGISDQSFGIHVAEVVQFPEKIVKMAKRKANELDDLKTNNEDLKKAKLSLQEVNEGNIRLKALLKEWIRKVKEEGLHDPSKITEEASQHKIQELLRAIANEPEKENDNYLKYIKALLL
T1 sequence (Q03834 1-1242): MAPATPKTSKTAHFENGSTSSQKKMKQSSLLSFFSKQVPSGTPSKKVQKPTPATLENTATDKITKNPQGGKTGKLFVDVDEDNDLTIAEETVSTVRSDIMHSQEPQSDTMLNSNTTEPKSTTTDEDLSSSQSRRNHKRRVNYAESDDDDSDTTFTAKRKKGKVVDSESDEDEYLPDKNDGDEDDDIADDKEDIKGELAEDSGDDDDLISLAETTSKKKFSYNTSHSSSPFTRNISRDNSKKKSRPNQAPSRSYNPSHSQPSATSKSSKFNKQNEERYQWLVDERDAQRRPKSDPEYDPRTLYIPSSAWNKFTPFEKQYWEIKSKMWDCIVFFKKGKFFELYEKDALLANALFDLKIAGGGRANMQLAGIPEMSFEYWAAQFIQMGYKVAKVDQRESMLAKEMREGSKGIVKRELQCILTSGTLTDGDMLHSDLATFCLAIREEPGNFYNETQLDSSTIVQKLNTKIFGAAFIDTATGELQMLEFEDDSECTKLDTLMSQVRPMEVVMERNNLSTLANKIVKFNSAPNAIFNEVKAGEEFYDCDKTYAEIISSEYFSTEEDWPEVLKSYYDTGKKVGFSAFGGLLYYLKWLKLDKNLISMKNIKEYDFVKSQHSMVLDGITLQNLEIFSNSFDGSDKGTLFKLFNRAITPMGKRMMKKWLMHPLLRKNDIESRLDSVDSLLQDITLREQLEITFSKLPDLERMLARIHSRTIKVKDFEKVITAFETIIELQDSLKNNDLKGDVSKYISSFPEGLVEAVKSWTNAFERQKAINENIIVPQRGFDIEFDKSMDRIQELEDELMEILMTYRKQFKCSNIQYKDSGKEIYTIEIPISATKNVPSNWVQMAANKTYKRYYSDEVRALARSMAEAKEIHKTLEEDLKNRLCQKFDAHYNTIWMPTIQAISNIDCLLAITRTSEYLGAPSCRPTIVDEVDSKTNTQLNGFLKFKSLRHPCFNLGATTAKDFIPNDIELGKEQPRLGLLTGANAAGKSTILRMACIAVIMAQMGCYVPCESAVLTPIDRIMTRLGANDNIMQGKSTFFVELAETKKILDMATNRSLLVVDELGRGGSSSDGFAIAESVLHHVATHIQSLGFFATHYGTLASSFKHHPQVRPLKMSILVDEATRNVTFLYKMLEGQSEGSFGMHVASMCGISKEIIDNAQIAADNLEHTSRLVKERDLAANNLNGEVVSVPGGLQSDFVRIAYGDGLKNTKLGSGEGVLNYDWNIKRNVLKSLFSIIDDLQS
Kind of experiment: UV cross-linking of [γ-32P]ATP, SDS-PAGE, phosphorimaging. The conditions noted are these: labelled compound; no Mg2+, EDTA, pH 8, on ice; Msh2 site at 60 μM ATP, Msh6 site at 1 μM ATP. Format: binding.

SMILES strings stand for the structures.

On to `Nc1ncnc2c1ncn2[C@@H]1O[C@H](COP(=O)(O)OP(=O)(O)OP(=O)(O)O)[C@@H](O)[C@H]1O` [ATP], for which the “relative ATP binding” value was “Msh2(K694A)–Msh6 and Msh2(K694R)–Msh6 mutant complexes were defective for ATP binding to both”.
